molecular target: T1, Sex hormone-binding globulin (Homo sapiens, UniProt P04278); test: Displacement of [3H]5alpha dihydrotestosterone from human sex hormone binding globulin
T1 sequence (P04278 whole entry): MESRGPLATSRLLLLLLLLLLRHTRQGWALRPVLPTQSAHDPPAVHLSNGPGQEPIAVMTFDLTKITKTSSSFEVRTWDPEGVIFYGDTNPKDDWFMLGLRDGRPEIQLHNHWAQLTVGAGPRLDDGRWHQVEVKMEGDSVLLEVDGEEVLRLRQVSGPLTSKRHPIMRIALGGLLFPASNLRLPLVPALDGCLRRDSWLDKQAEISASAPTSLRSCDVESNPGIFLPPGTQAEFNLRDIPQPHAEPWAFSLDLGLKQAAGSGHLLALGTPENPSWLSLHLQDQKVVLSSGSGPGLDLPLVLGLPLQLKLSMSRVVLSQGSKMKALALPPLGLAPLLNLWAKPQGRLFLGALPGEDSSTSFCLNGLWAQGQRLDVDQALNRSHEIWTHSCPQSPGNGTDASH

| Compound | Kd [nM] |
| --- | --- |
| CC(=O)O[C@]1(C(C)=O)CC[C@H]2[C@@H]3C[C@H](C)C4=CC(=O)CC[C@]4(C)[C@H]3CC[C@@]21C [MEDROXYPROGESTERONE ACETATE] | 631 |
| C[C@]12CCC(=O)C[C@@H]1CC[C@@H]1[C@@H]2CC[C@@]2(C)[C@H]1CC[C@]2(C)O [MESTANOLONE] | 1.55 |
| C[C@H]1CC(=O)C[C@@H]2CC[C@H]3[C@@H]4CC[C@H](O)[C@@]4(C)CC[C@@H]3[C@]21C [MESTEROLONE] | 0.251 |
| C[C@]12CCC(=O)C=C1CC[C@@H]1[C@@H]2CC[C@@]2(C)[C@H]1CC[C@]2(C)O [METHYLTESTOSTERONE] | 3.72 |
| C[C@]12CC[C@H]3[C@@H](CCC4=CC(=O)CC[C@@H]43)[C@@H]1CC[C@@H]2O [NANDROLONE] | 501 |
| C#C[C@]1(O)CC[C@H]2[C@@H]3CCC4=CC(=O)CC[C@@H]4[C@H]3CC[C@@]21C [NORETHINDRONE] | 10.7 |
| C[C@]12CC[C@H](O)CC1=CC[C@@H]1[C@@H]2CC[C@]2(C)C(=O)CC[C@@H]12 [PRASTERONE] | 14.5 |
| CC(=O)[C@H]1CC[C@H]2[C@@H]3CC=C4C[C@@H](O)CC[C@]4(C)[C@H]3CC[C@]12C [PREGNENOLONE] | 70.8 |
| CC(=O)[C@H]1CC[C@H]2[C@@H]3CCC4=CC(=O)CC[C@]4(C)[C@H]3CC[C@]12C [PROGESTERONE] | 115 |
| C[C@]12CCC(=O)C[C@@H]1CC[C@@H]1[C@@H]2CC[C@]2(C)[C@@H](O)CC[C@@H]12 [STANOLONE] | 0.182 |
| C[C@]12CC[C@H]3[C@@H](CCC4=CC(=O)CC[C@@]43C)[C@@H]1CC[C@@H]2O [TESTOSTERONE] | 0.631 |

From ChEMBL document CHEMBL1142400, “An updated steroid benchmark set and its application in the discovery of novel nanomolar ligands of sex hormone-binding globulin” (J Med Chem, 2008)
